By IC50 is commonly meant the concentration that inhibits the measured activity by half.

Drawing on patent EP4759817A1, “HETEROARYL COMPOUND, PREPARATION METHOD THEREFOR, AND USE THEREOF IN MEDICINE” (Jiangsu Hengrui Pharmaceuticals Co., Ltd., priority 2023, dated 2025), this text covers IC50 for four compounds.

SMILES strings stand for the structures.

In one assay the test system is HCT116 MTAP-/- cells. Kind of assay: HCT116 MTAP-/- cell proliferation assay (CellTiter-Glo, 10 days). It is filed as cell-based. The settings on record: growth inhibition, CTG assay Day 10. An excerpt:
(§1) • I. Experimental materials and instruments • 1. HCT116 cell line (Nanjing Kebai Biotechnology Co., Ltd., CBP60028) • 2. HCT116 MTAP-/- cell line (Nanjing Kebai Biotechnology Co., Ltd., CBP75002) • 3. DMSO (Sigma, D2650) • 4. McCoy's 5A medium (Gibco, 16600-082) • 5. Foetal bovine serum (FBS) (Gibco, 10091148) • 6. Phosphate buffered saline (DPBS) pH 7.4 (Gibco, 14190-144) • 7. Pen strep (PS) (Gibco, 15140-122) • 8. 0.25% Typsin-EDTA (1×) (Gibco, 25200-072) • 9. CellTiter-Glo® Luminescent Cell Viability Assay (Promega, G7572) • 10. 96-well round-bottom plate (JET, TCP002096) • 11. 96-well black clear bottom plate (Hangzhou Xinyou Biotechnology Co., Ltd., 060096) • 12. 1.2 mL 96-well deep well plate, clear, sterile, square-well, V-bottom (Titan, 02089063) • 13. 15-mL centrifuge tube (Titan) • 14. Biosafety cabinet (Thermo, 1300AII) • 15. Cell counter (Countstar, IC1000) • 16. Incubator (Thermo, I160) • 17. Centrifuge (Beckman coulter, Allegra X-12 centrifuge) • 18. PHERAstar FS microplate reader (BMG Labtech) • II. Experimental procedure • 1. Cell plating (Day 0) • a) The cell morphology was observed under a microscope to ensure confluence reached approximately 90%. • b) The cell supernatant was aspirated, the cells were washed once with PBS, and then the PBS was removed; and the cells were digested by adding an appropriate amount of trypsin, and left to stand at 37°C for 3 minutes. • c) The digestion was terminated by adding an equal volume of McCoy's 5A medium containing 10% FBS, and the cell suspension was collected and centrifuged at 300 g for 3 minutes; and the cells were resuspended in an appropriate amount of fresh medium. • d) The resuspended cell suspension was taken for counting. • e) The cell suspension was diluted to 1e4/mL using McCoy's 5A medium containing 10% FBS, and seeded at 50 µL per well, corresponding to 500 cells/well for HCT116 and 500 cells/well for HCT116 MTAP-/-. • f) The cell plate was placed in a 37°C, 5% carbon dioxide incubator and incubated overnight. • 2. Compound treatment (Day 1) • a) Each compound was serially diluted in DMSO to generate a 9-point concentration gradient (starting concentration: 10000 µM, 3-fold dilution; the highest concentration may be adjusted individually based on IC50 of different compounds); for example, in a 96-well round-bottom compound-dilution plate, 5 µL of the compound was sequentially diluted into 10 µL of DMSO. • b) Each concentration point of every compound was then diluted 250-fold into the corresponding volume of McCoy's 5A medium. • c) To each cell plate, 50 µL of the diluted compound solution as described above was added sequentially to the cell supernatant (50 µL/well). • d) The compound-treated cell plate was placed in a 37°C, 5% carbon dioxide incubator and incubated. • 3. Re-digestion, re-plating and compound treatment (Day 5) • a) After 5 days of compound treatment, the compound-containing medium was aspirated, and the cells were rinsed once with PBS (100 µL/well); and the PBS was removed immediately. • b) The cells were digested by adding 25 µL of trypsin and incubated at 37°C for 3 minutes, and then the digestion was terminated by adding 175 µL/well of McCoy's 5A medium containing 10% FBS. • c) The cells were mixed thoroughly using a pipette, and re-plated at 1 : 20; and specifically, 10 µL of the cell suspension was aspirated to a new 96-well plate (pre-filled with 40 µL of McCoy's 5A medium containing 10% FBS. • d) Compounds were prepared and added according to steps a) to c) in Section 2, with 50 µL added per well. • e) The compound-treated cell plate was placed in a 37°C, 5% carbon dioxide incubator and incubated. • 4. […]

A further assay concerns HCT116 cells. Kind of assay: HCT116 cell proliferation assay (CellTiter-Glo, 10 days). It is filed as cell-based. The settings on record: growth inhibition, CTG assay Day 10.
From the text: as §1, with “3.” for “3. Re-digestion, re-plating and compound treatment (Day 5) • a) After 5 days of compound treatment, the compound-containing medium was aspirated, and the cells were rinsed once with PBS (100 µL/well); and the PBS was removed immediately. • b) The cells were digested by adding 25 µL of trypsin and incubated at 37°C for 3 minutes, and then the digestion was terminated by adding 175 µL/well of McCoy's 5A medium containing 10% FBS. • c) The cells were mixed thoroughly using a pipette, and re-plated at 1 : 20; and specifically, 10 µL of the cell suspension was aspirated to a new 96-well plate (pre-filled with 40 µL of McCoy's 5A medium containing 10% FBS. • d) Compounds were prepared and added according to steps a) to c) in Section 2, with 50 µL added per well. • e) The compound-treated cell plate was placed in a 37°C, 5% carbon dioxide incubator and incubated. • 4.”
Background: In ATP-based viability assays light output follows the ATP content of the culture.

For assay [1], the target named is T1, Recombinant human PRMT5: MEP50 protein (Homo sapiens, UniProt O14744).
T1 construct: purchased active motif 31521
Kind of assay: Inhibitory activity against human PRMT5 enzymatic activity (HTRF quantification of SAH, +MTA). Particulars: +1 µM MTA; histone H4 peptide substrate (1-21), SAM; 37°C 120 min. It is filed as biochemical. On the procedure:
• 1. Recombinant human PRMT5: MEP50 protein (active motif, 31521) • 2. EPIgeneous Methyltransferase kit (cisbio, 62SAHPEH) • 3. 96-well plate (Sangon Biotech, F610960-0010) • 4. 384-well white plate (Perkin Elmer, 6007290) • 5. 1 M Tris-HCl [pH 8.5] (Sangon Biotech, B548141) • 6. Histone H4 peptide substrates (1-21) (BPS bioscience, 52014) • 7. 5'-deoxy-5'-(methylthio)adenosine (Aladdin, D168979-25 mg) • 8. Tween-20 (Sangon Biotech, A100777-0500) • 9. DMSO (Sigma, D2650) • 10. Incubator (Shanghai Boxun Medical Biological Instrument Corp.) • 11. PHERAstar FS microplate reader (BMG Labtech)
PRMT5 can induce the transfer of a methyl group from S-adenosylmethionine (SAM) to a histone H4 peptide substrate (1-21), generating S-adenosylhomocysteine (SAH). In this experiment, the amount of SAH produced in the reaction is quantified using a Homogeneous Time-Resolved Fluorescence (HTRF) method to evaluate the inhibitory activity of compounds against PRMT5 enzymatic activity.
The sample diluent containing (or not containing) 1 µM 5 '-deoxy-5' - (methylthiyl) adenosine (MTA) was prepared using the EPIgeneous Diluent Buffer from the EPIgeneous Methyltransferase kit. With reference to the instructions, SAM and SAH standards were serially diluted and dispensed at 10 µL per well (in duplicate for each concentration). 2 µL of EPIgeneous Detection Buffer 1 was added to each well, and the plate was centrifuged, shaken to mix thoroughly, and placed at room temperature for 10 min. The SAH d2 Reagent was diluted 32-fold with EPIgeneous Detection Buffer 2, and 4 µL of the diluted SAH-d2 solution was added to each well. The plate was centrifuged and shaken for 2 min to mix thoroughly. The SAH Tb Cryptate Antibody was diluted 50-fold in EPIgeneous Detection Buffer 2. 4 µL of the diluted Tb Cryptate Antibody solution was added to each well, and the plate was centrifuged, shaken for 2 min to mix thoroughly, and left to stand at room temperature for 60 min, followed by reading on a PHERAstar FS microplate reader to obtain the 665/620 ratio. Plotting SAH concentration against the ratio to generate an x-y curve yields a corresponding calculation formula.
Reaction buffer (1×): 50 mM Tris-HCl [pH 8.5], 1 mM DTT, 0.005% Tween-20.
Compound preparation: a 20 mM solution of test compound in 100% DMSO was diluted in 100% DMSO to 1 mM as the highest concentration, and the solution at this concentration was then subjected to a 10-point, 3-fold serial dilution in 100% DMSO in a 96-well plate. Wells containing 100% DMSO served as the blank control. The above-described serially diluted compounds and the 100% DMSO were diluted 20-fold with the reaction buffer to prepare 5× compound solutions, which were mixed thoroughly for use.
The PRMT5:MEP50 was diluted in the reaction buffer to a final concentration of 12.5 nM. Then, 4 µL of the 12.5 nM PRMT5:MEP50 solution was added to each well of a 384-well plate. Wells containing 4 µL of the reaction buffer served as the negative control wells. 2 µL of the 5× compound solution was added to each well. For the negative control wells (no enzyme, no compound) and the positive control wells (no compound), 2 µL of 5% DMSO was added. The plate was sealed with a membrane, centrifuged, shaken for 2 min to mix thoroughly, and placed at room temperature for 20 min.
Preparation of substrate mixture solution: The substrate mixture solution containing 1.5 µM histone H4 peptide substrate (1-21) and 2.5 µM SAM, or 1.5 µM histone H4 peptide substrate (1-21), 2.5 µM SAM and 2.5 µM MTA was prepared in the reaction buffer.
The reaction was initiated by adding 4 µL of the substrate mixture solution (-/+ MTA) to each well. The plate was sealed with a membrane, centrifuged, shaken for 2 min to mix thoroughly, and incubated at 37°C for 120 min in a constant temperature incubator.
Detection: The detection was performed by using the EPIgeneous Methyltransferase kit. […]

T1 sequence (O14744 whole entry): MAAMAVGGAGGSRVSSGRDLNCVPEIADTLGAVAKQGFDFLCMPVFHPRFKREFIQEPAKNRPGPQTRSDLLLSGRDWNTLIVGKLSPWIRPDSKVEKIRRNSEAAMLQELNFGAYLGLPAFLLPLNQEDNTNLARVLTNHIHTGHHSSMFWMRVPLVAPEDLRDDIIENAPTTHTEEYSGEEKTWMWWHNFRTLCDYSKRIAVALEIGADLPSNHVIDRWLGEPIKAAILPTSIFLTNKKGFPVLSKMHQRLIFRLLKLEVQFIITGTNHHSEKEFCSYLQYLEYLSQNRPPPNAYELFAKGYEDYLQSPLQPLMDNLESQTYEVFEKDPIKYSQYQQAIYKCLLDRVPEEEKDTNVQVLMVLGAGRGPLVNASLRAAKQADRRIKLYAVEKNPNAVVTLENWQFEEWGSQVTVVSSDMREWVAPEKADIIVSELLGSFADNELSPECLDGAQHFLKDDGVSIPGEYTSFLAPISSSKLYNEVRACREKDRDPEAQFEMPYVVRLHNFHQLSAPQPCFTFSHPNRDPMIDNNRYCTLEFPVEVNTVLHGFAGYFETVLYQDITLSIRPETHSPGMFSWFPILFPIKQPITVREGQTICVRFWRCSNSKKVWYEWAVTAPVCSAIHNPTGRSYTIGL
T1 sequence (Q9BQA1 whole entry partner): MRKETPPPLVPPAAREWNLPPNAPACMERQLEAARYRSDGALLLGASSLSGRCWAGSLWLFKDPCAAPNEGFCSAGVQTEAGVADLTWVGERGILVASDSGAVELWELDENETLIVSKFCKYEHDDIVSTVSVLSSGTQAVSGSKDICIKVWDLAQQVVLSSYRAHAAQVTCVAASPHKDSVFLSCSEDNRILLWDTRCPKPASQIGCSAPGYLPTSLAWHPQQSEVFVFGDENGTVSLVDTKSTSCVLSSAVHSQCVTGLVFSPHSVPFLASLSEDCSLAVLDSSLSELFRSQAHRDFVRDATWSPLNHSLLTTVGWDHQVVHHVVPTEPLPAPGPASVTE

On to `[2H]C([2H])([2H])n1ncc(-c2ccc3c(=O)[nH]nc(CN)c3c2)c1-c1c(F)cc2c(c1C#N)O[C@@H]1CC[C@@H]1O2` (single isomer, unassigned) [Compound 2-p2], for which the IC50 with HCT116 MTAP-/- cells (Homo sapiens, HCT-116, 240 h) is 13.5 nM; in the assay with HCT116 cells (Homo sapiens, HCT-116, 240 h), 2370 nM; in assay [1] it was 7.01 nM.
On to `[2H]C([2H])([2H])n1ncc(-c2ccc3c(=O)[nH]nc(CN)c3c2)c1-c1c(F)c(Cl)c2c(c1C#N)N1CCC[C@H]1CO2` (atropisomer, axis not shown; (M)) [Compound 13-p1, (M)-(S)-8-(4-(4-(aminomethyl)-1-oxo-1,2-dihydrophthalazin-6-yl)-1-(methyl-d3)-1H-pyrazol-5-yl)-6-chloro-7-fluoro-2,3,3a,4-tetrahydro-1H-benzo[b]pyrrolo[1,2-d][1,4]oxazine-9-carbonitrile], for which the IC50 in the assay on HCT116 MTAP-/- cells (Homo sapiens, HCT-116, 240 h) is 15 nM; in assay [1] it was 2.8 nM.
For `[2H]C([2H])([2H])n1ncc(-c2ccc3c(=O)[nH]nc(CN)c3c2)c1-c1c(F)c(Cl)c2c(c1C#N)O[C@H]1CC[C@H]1O2` (atropisomer, axis not shown; (M)) [Compound 11-p3, (M)-(2aS,8aR)-5-(4-(4-(aminomethyl)-1-oxo-1,2-dihydrophthalazin-6-yl)-1-(methyl-d3)-1H-pyrazol-5-yl)-7-chloro-6-fluoro-1,2,2a,8a-tetrahydrobenzo[b]cyclobuta[e][1,4]dioxine-4-carbonitrile], in that order: 4.6 nM and 5.4 nM.
In the case of `Cn1ncc(-c2ccc3c(=O)[nH]nc(CN)c3c2)c1-c1c(F)cc2c(c1C#N)O[C@@H]1CC[C@@H]1O2` (atropisomer, axis not shown; (M)) [Compound 1-p2, (M)-(2aR,8aS)-5-(4-(4-(aminomethyl)-1-oxo-1,2-dihydrophthalazin-6-yl)-1-methyl-1H-pyrazol-5-yl)-6-fluoro-1,2,2a,8a-tetrahydrobenzo[b]cyclobuta[e][1,4]dioxine-4-carbonitrile], the IC50 in the assay on HCT116 MTAP-/- cells was 13.3 nM; in the assay on HCT116 cells, 2350 nM.
